Results published in US20020150990A1, “Hepatitis C virus peptides” (priority 1992, published 2002).
Ends that are not written are not given here.

Test system: antibodies against HCV
Test: PEPSCAN analysis of overlapping octameric peptides of the HCV core protein N-terminal region with HCV-seropositive sera
Format: binding, human
Conditions: read at 405 nm
Description: The N-terminal 97 amino acid residues of HCV Core protein SEQ ID NO: 8 was mapped with PEPSCAN analysis. This process involved the serological analysis of sequentially overlapping peptides which spanned the region of interest, to identify epitopic domains. Ninety overlapping octameric peptides were synthesized on polypropylene pin supports according to the manufacturer's instructions (Cambridge Research Biochemicals), such that each peptide overlapped with the preceding sequence by the seven N-terminal residues, and with the subsequent peptide by the seven C-terminal residues. Serum or IgG purified from the serum of individuals confirmed to be seropositive for HCV were used to screen the peptides.
The assay procedure followed was performed basically as described in the manufacturers instruction manual. The time and temperature of the test antibody incubation differed from that prescribed, thereby decreasing the time taken for each assay.
Sera: A total of 16 sera were assayed by PEPSCAN. These consisted of 12 sera from paid U.S. Donors which were identified as being positive for antibodies against HCV in routine screening at the site of donation. The remaining four sera were from patients diagnosed as having non-A non-B hepatitis, and which were subsequently shown to contain antibodies to HCV. Sera were screened either as the crude serum fraction, or as a caprylic acid preparation. Caprylic acid purification of IgG from the sera was performed as described by Stienbuch and Audran (1969) Arch. Biochem. Biophys. 134, 279-284.
Assay: The assay format involves sequentially incubating the various pins in microwell plates containing blocking, test antibody, conjugate, and substrate solutions. The immune complex builds up on the pin with the enzyme labelled conjugate being immobilized on the bound anti-peptide antibody from the test serum. When the pin is then immersed in substrate, the enzyme brings about the colour change which is used to quantify the amount of anti-peptide antibody bound.
Blocking: Pins are immersed in 200 μl of Supercocktail (1% Ovalbumin, 1% bovine serum albumin in 0.15M phosphate buffered saline pH 7.2—0.1% Tween 20) and left to stand at room temperature for 1 hour.
Test antibody: The test antibody is diluted between 1/200 (IgG) and 1/1000 (serum) in supercocktail. The pins are then stood in this solution (175 μl/well) at 37° C. for 1 hour. After this incubation the pins are washed four times in 0.15M phosphate buffered saline pH 7.2—0.05% Tween 20, each at room temperature for 10 minutes.
Conjugate: Rabbit anti-human IgG coupled to horseradish peroxidase is diluted 1/1000 in supercocktail. The peptide bearing pins are then stood in this solution at room temperature for 1 hour. Once again the pins are then washed four times as above.
Substrate: The substrate solution is made up fresh for each assay. To 100 ml of 0.1M phosphate, 0.08M citrate buffer pH 4.0 is dissolved 50 mg of 2,2′-AZINO-bis (3-ethylbenzthiazo-linsulphonic acid (ABTS) and 0.3 μl/ml 30% hydrogen peroxide is added. The pins are immersed in the wells containing substrate solution (150 μl/well) and incubated at room temperature in the dark. Once sufficient colour has developed the reaction is stopped by removing the pins. The plates are then read immediately in a spectrophotometric plate reader at a wavelength of 405 nm. The absorbance values are then plotted against pin number. The epitopic domains are then defined as the continuous sequence of amino acids common to all positive pins in the domain i.e.

| Sequence | Absorbance Units for different sera (serum 65221) [Absorbance Units] | Absorbance Units for different sera (serum 65234) [Absorbance Units] | Absorbance Units for different sera (serum 65241) [Absorbance Units] | Absorbance Units for different sera (serum 65276) [Absorbance Units] | Absorbance Units for different sera (serum L) [Absorbance Units] |
| --- | --- | --- | --- | --- | --- |
| GGGQIVGG (pin support) [overlapping octameric peptide of HCV core protein on pin support] | 137 | 134 | 121 | 127 | 121 |
| GGQIVGGV (pin support) [overlapping octameric peptide of HCV core protein on pin support] | 323 | 179 | 122 | 119 | 119 |
| GGVYLLPR (pin support) [overlapping octameric peptide of HCV core protein on pin support] | 132 | 344 | 311 | 246 | 191 |
| GPRLGVRA (pin support) [overlapping octameric peptide of HCV core protein on pin support] | 111 | 75 | 60 | 146 | 101 |
| GQIVGGVY (pin support) [overlapping octameric peptide of HCV core protein on pin support] | 216 | 165 | 112 | 128 | 138 |
| GVYLLPRR (also: pin support) [Gly-Val-Tyr-Leu-Leu-Pro-Arg-Arg, overlapping octameric peptide of HCV core protein on pin support] | 613 | 229 | 511 | 350 | 378 |
| IVGGVYLL (pin support) [overlapping octameric peptide of HCV core protein on pin support] | 268 | 186 | 126 | 183 | 158 |
| LLPRRGPR (pin support) [overlapping octameric peptide of HCV core protein on pin support] | 142 | 101 | 129 | 98 | 133 |
| LPRRGPRL (pin support) [overlapping octameric peptide of HCV core protein on pin support] | 97 | 145 | 94 | 139 | 148 |
| PRLGVRAT (pin support) [overlapping octameric peptide of HCV core protein on pin support] | 166 | 88 | 79 | 155 | 115 |
| PRRGPPLG [overlapping octameric peptide of HCV core protein on pin support] | 85 | 109 | 73 | 129 | 110 |
| QIVGGVYL (pin support) [overlapping octameric peptide of HCV core protein on pin support] | 329 | 152 | 125 | 165 | 161 |
| RGPRLGVR (pin support) [overlapping octameric peptide of HCV core protein on pin support] | 168 | 99 | 94 | 167 | 132 |
| RLGVRATR (pin support) [overlapping octameric peptide of HCV core protein on pin support] | 81 | 100 | 180 | 177 | 124 |
| RRGPRLGV (pin support) [overlapping octameric peptide of HCV core protein on pin support] | 145 | 146 | 85 | 150 | 123 |
| VGGVYLLP (pin support) [overlapping octameric peptide of HCV core protein on pin support] | 83 | 235 | 144 | 132 | 169 |
| VYLLPRRG (pin support) [Val-Tyr-Leu-Leu-Pro-Arg-Arg-Gly, overlapping octameric peptide of HCV core protein on pin support] | 769 | 280 | 641 | 440 | 306 |
| YLLPRRGP (pin support) [Tyr-Leu-Leu-Pro-Arg-Arg-Gly-Pro, overlapping octameric peptide of HCV core protein on pin support] | 332 | 177 | 367 | 248 | 242 |
